According to patent US9376466B2, “Peptide inhibitors of caspase 2 activation” (The Trustees of Columbia University in the city of New York, priority 2011, dated 2016):
“Also recorded” adds a separate entry of the source.

Tests used:
Assay type in all cases: cell-based, rat
[1] = test system: primary hippocampal neurons; test: Cell survival assay, primary hippocampal neurons treated with Aβ1-42; details: AFDAFC-Pen1 final concentration 80 nM, survival quantified after 1 day, n=3, FIG. 7
Description: Peptide Preparation: AFDAFC (SEQ ID NO: 1) was synthesized by Multiple Peptide Systems (San Diego, Calif.). Lyophilized peptide was resuspended in sterile ddH2O and linked in equimolar amounts with Pen1 (Troy et al. Proc. Natl. Acad. Sci. U.S.A. 93: 5635-5640 (1996)) for a stock concentration of 80 μM. AFDAFC-Pen1 was used at a final concentration of 80 nM.
Embryonic day 18 rat fetuses were removed from CO2-sacrificed pregnant Sprague Dawley rats (Charles River). The hippocampus was dissected out from surrounding tissue and the meninges completely removed. Pooled tissue was mechanically dissociated in a serum-free defined medium. […]
Cell Survival Assay. Hippocampal or sympathetic neuron survival was scored as previously reported (Troy et al., J Neurosci. 17:1911-8, 1997). […] Intact nuclei were quantified using a hemacytometer. Triplicate wells were scored and values reported as mean±SEM. Significance was calculated by Student's t-test. For sympathethic neurons, each culture was scored as numbers of living, phase-bright neurons counted in the same field at various times. Three replicate cultures were assessed for each condition, and data are normalized to numbers of neurons present in each culture at the time of Aβ1-42 addition or NGF deprivation and reported as mean±SEM.

[2] = test system: Caspase 2 bound to endogenous RAIDD; test: Caspase 2 and RAIDD co-immunoprecipitation in primary hippocampal neurons; details: primary hippocampal neurons treated with AFDAFC-Pen1 prior to Aβ1-42; Western blot; FIG. 13
Description: Caspase 2 and RAIDD Co-Immunoprecipitation (IP). Mouse IgG magnetized beads (Invitrogen) were pre-coated with a RAIDD antibody (anti-CRADD; Abnova) for 2 hrs at 4° C. on a rotator. 2 μg of antibody was used per 30 μl of beads. Primary rat hippocampal neurons were treated with Aβ1-42 (3 μM) for 1 or 2 hrs. Cell lysates were prepared using CHAPS lysis buffer. 70-120 μg of lysates were loaded onto anti-CRADD pre-coated beads and incubated overnight at 4° C. on a rotator. Following the overnight incubation, the captured proteins were boiled off the beads at 100° C. for 5 mins. The immunoprecipitated samples, along with inputs, were then subjected to Western blotting using affinity purified polyclonal anti-Caspase 2.

Bim = test: Western blot of Bim protein in hippocampal neuron cultures; details: primary hippocampal neurons treated with AFDAFC-Pen1 prior to Aβ1-42; FIG. 14
Description: Cell Culture of primary hippocampal neuron cultures. Neurons were cultured as previously described (Akpan et al., J Neurosci. 31:8894-904, 2011). Briefly, embryonic day 18 rat fetuses were removed from CO2-sacrificed pregnant Sprague Dawley rats (Charles River). The hippocampus was dissected from surrounding tissue and the meninges removed. Pooled hippocampi were mechanically dissociated in a serum-free defined medium. Medium consisted of a 1:1 mixture of Eagle's MEM and Ham's F12 (Invitrogen) supplemented with glucose (6 mg/ml), insulin (25 μg/ml), selenium (30 nM), progesterone (20 nM), transferrin (100 μg/ml), putrescine (60 μg/ml), penicillin (0.5 U/ml), and streptomycin (0.5 μg/ml). Dissociated cells were grown on poly-D-lysine coated plates or 8-well chamber slides. Neurons were cultured for 7 days prior to experimental treatments.
Western Blot. Hippocampal neurons or sympathetic neurons were lysed in CHAPS lysis buffer ([…], 50 mM HEPES, 0.1% CHAPS, protease inhibitor tablet, pH 7.4). Protein concentration was determined using BioRad protein assay reagent (Bio-Rad). Equal amounts of protein were loaded onto 10% or 12% polyacrylamide gels. […] Proteins were detected using either enhanced chemiluminescence (Thermo Scientific) or fluorescence using the Odyssey infrared imaging system (LI-COR Biosciences). The relative densities of immunopositive bands were analyzed using ImageJ.

AFDAFC-Pen1: Caspase 2 activation inhibitory peptide AFDAFC (SEQ ID NO: 1) conjugated to cell-penetrating peptide Pen1 (RQIKIWFQNRRMKWKK)
Aβ-mediated cell death (survival) [1]: abrogates Aβ-mediated cell death
Aβ1-42-induced binding of Caspase 2 to RAIDD [2]: reduces Aβ1-42-induced binding of Caspase 2 to RAIDD
Bim induction elicited by Aβ1-42 (protein level) (Bim): preventing Bim induction; also recorded: prevents Bim induction
